These results are taken from patent publication US20230365592A1 (Agios Pharmaceuticals, Inc., priority 2022, published 2023).

SMILES strings stand for the structures. Where only a bound is given, the exact number is not on record here.

The target in one experiment is T1, human PAH with the R408W mutation (Homo sapiens, UniProt P00439, R408W).
T1 construct: expressed in transfected cells
T1 sequence (P00439 1-452 R408W): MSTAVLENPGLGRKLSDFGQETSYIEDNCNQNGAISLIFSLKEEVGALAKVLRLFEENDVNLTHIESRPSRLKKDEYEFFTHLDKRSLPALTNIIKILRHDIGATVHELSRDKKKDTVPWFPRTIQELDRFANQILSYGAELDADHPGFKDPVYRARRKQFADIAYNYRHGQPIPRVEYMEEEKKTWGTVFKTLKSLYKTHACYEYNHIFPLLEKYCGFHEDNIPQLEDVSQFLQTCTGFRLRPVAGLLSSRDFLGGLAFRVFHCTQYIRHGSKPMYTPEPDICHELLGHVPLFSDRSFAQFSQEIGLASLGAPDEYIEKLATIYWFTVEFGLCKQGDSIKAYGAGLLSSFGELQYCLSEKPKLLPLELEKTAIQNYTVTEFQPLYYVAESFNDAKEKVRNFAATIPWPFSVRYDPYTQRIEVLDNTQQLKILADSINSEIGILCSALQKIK
The experiment can be described thus: Cell Based Phenylalanine Flux Assay.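 Also: after compound treatment, cells received sepiapterin plus isotope-labelled Phenylalanine for 4 hours, then labelled Tyrosine in the medium was quantified, 10-point 2-fold dilution series run in duplicate.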 The note with it: A375 cells expressing R408W PAH; 24 hrs with compound, then 20 µM sepiapterin and 800 µM 13C9,15N-Phenylalanine for 4 hours; 13C-Tyrosine by LC-MS; average where tested multiple times; read-out: AC50.
In general, AC50 refers to the concentration giving half of the maximal activity seen. For the compound `Cc1ccc2c(C(=O)N3CCc4[nH]cnc4C3c3cc4cccc(Cl)n4n3)cnn2c1` (stereo not shown), the AC50 was in the range of 1000 to 5000 nM. Turning to `O=C(C1CN(CC(F)(F)F)C1)N1CCc2[nH]cnc2C1c1cc2ccccn2n1` (stereo not shown), the AC50 was over 5000 nM. Regarding `O=C(C1CC1)N1CCc2[nH]cnc2C1c1cc2ccccn2n1` (stereo not shown), the concentration at half-maximal activity (AC50) was 1000 to 5000 nM.

With `Fc1cccc2cc(C3c4nc[nH]c4CCN3c3nnc(C4CC4)o3)nn12` (stereo not shown), the AC50 lay within 1000 to 5000 nM. Regarding `CC(O)c1nc(C(F)F)c(C(=O)N2CCc3[nH]cnc3C2c2cc3c(Cl)cccn3n2)o1` (stereo not shown), the concentration at half-maximal activity (AC50) is 1000 to 5000 nM.

The same experiment, now with this note: A375 cells expressing human PAH R408W; 24 hrs compound incubation; 13C-Tyrosine by LC-MS; average where tested multiple times; read-out: AC50.
In the case of `Cn1ccc(-c2ncc(C(=O)N3CCc4[nH]cnc4[C@H]3c3cc4c(C(F)(F)F)cccn4n3)o2)n1` [Example 2109, (S)-(2-(1-methyl-1H-pyrazol-3-yl)oxazol-5-yl)(4-(4-(trifluoromethyl)pyrazolo[1,5-a]pyridin-2-yl)-1,4,6,7-tetrahydro-5H-imidazo[4,5-c]pyridin-5-yl)methanone], the half-maximal activity concentration (AC50) lay within 500 to 1000 nM. As for `Fc1cccn2nc([C@@H]3c4nc[nH]c4CCN3c3ccc(C(F)(F)F)cn3)cc12` [Example 1943, (S)-4-(4-fluoropyrazolo[1,5-a]pyridin-2-yl)-5-(5-(trifluoromethyl)pyridin-2-yl)-4,5,6,7-tetrahydro-1H-imidazo[4,5-c]pyridine], the half-maximal activity concentration (AC50) was under 500 nM. In the case of `O=C(c1nc2ccccc2o1)N1CCc2[nH]cnc2[C@@H]1c1cc2c(C(F)(F)F)cccn2n1` [Example 2055, (R)-benzo[d]oxazol-2-yl(4-(4-(trifluoromethyl)pyrazolo[1,5-a]pyridin-2-yl)-1,4,6,7-tetrahydro-5H-imidazo[4,5-c]pyridin-5-yl)methanone], the half-maximal activity concentration (AC50) is over 5000 nM.

As for `O=C(c1nnc(-c2cnn(C(F)(F)F)c2)o1)N1CCc2[nH]cnc2[C@H]1c1cc2c(C3CC3)cccn2n1` [Example 1928, (S)-(4-(4-cyclopropylpyrazolo[1,5-a]pyridin-2-yl)-1,4,6,7-tetrahydro-5H-imidazo[4,5-c]pyridin-5-yl)(5-(1-(trifluoromethyl)-1H-pyrazol-4-yl)-1,3,4-oxadiazol-2-yl)methanone], the AC50 lay in the range of 500 to 1000 nM. `O=C(c1ocnc1C1CC1)N1CCc2[nH]cnc2[C@H]1c1cc2c(F)cccn2n1` [Example 1986, (S)-(4-cyclopropyloxazol-5-yl)(4-(4-fluoropyrazolo[1,5-a]pyridin-2-yl)-1,4,6,7-tetrahydro-5H-imidazo[4,5-c]pyridin-5-yl)methanone]: the half-maximal activity concentration (AC50) is under 500 nM. Turning to `c1cnc(N2CCc3[nH]cnc3[C@@H]2c2cc3c(C4CC4)cccn3n2)nc1` [Example 2173, (R)-4-(4-cyclopropylpyrazolo[1,5-a]pyridin-2-yl)-5-(pyrimidin-2-yl)-4,5,6,7-tetrahydro-1H-imidazo[4,5-c]pyridine], the concentration at half-maximal activity (AC50) lay within 1000 to 5000 nM.

The experiment is the same for the next values; noted with them: A375 cells expressing human R408W PAH; 24 hrs compound incubation; 13C-Tyrosine by LC-MS; average where tested multiple times; read-out: AC50.
With `O=C(c1nnc(C2CCC2)o1)N1CCc2[nH]cnc2[C@H]1c1cc2cccc(Cl)n2n1` [Example 1561, (S)-(4-(7-chloropyrazolo[1,5-a]pyridin-2-yl)-6,7-dihydro-1H-imidazo[4,5-c]pyridin-5(4H)-yl)(5-cyclobutyl-1,3,4-oxadiazol-2-yl)methanone], the AC50 is under 500 nM. Still for that read-out and setting: under `O=C(c1nnc(-c2cnccn2)o1)N1CCc2[nH]cnc2[C@H]1c1cc2c(C(F)(F)F)cccn2n1` [Example 1300, (S)-(5-(pyrazin-2-yl)-1,3,4-oxadiazol-2-yl)(4-(4-(trifluoromethyl)pyrazolo[1,5-a]pyridin-2-yl)-6,7-dihydro-1H-imidazo[4,5-c]pyridin-5(4H)-yl)methanone] stands under 500 nM. On the same count and under the same terms, under `O=C(c1nnc(-c2cccnc2)o1)N1CCc2[nH]cnc2[C@H]1c1cc2cccc(Cl)n2n1` [Example 1306, (S)-(4-(7-chloropyrazolo[1,5-a]pyridin-2-yl)-6,7-dihydro-1H-imidazo[4,5-c]pyridin-5(4H)-yl)(5-(pyridin-3-yl)-1,3,4-oxadiazol-2-yl)methanone] stands under 500 nM; under `CC(C)(O)c1nc(C(F)F)c(C(=O)N2CCc3[nH]cnc3[C@@H]2c2cc3ccc(F)cn3n2)o1` [Example 1071, (R)-(4-(difluoromethyl)-2-(2-hydroxypropan-2-yl)oxazol-5-yl)(4-(6-fluoropyrazolo[1,5-a]pyridin-2-yl)-6,7-dihydro-1H-imidazo[4,5-c]pyridin-5(4H)-yl)methanone], over 5000 nM. In the case of `FC(F)c1cccn2nc([C@@H]3c4nc[nH]c4CCN3c3nnc(C4CC4)o3)cc12` [Example 1607, (S)-2-cyclopropyl-5-(4-(4-(difluoromethyl)pyrazolo[1,5-a]pyridin-2-yl)-6,7-dihydro-1H-imidazo[4,5-c]pyridin-5(4H)-yl)-1,3,4-oxadiazole], the AC50 was 500 to 1000 nM. As to `O=C(c1nnc(C2CC(F)(F)C2)o1)N1CCc2[nH]cnc2[C@H]1c1cc2c(C(F)F)cccn2n1` [Example 1602, (S)-(5-(3,3-difluorocyclobutyl)-1,3,4-oxadiazol-2-yl)(4-(4-(difluoromethyl)pyrazolo[1,5-a]pyridin-2-yl)-6,7-dihydro-1H-imidazo[4,5-c]pyridin-5(4H)-yl)methanone], the AC50 lay within 500 to 1000 nM. Turning to `O=C(c1cnn2cc(-c3ccccn3)ccc12)N1CCc2[nH]cnc2[C@H]1c1cc2c(F)cccn2n1` [Example 1644, (S)-(4-(4-fluoropyrazolo[1,5-a]pyridin-2-yl)-6,7-dihydro-1H-imidazo[4,5-c]pyridin-5(4H)-yl)(6-(pyridin-2-yl)pyrazolo[1,5-a]pyridin-3-yl)methanone], the half-maximal activity concentration (AC50) is under 500 nM. As for `Cc1nc(C(C)(C)O)oc1C(=O)N1CCc2[nH]cnc2[C@@H]1c1cc2c(Cl)cccn2n1` [Example 725, (R)-(4-(4-chloropyrazolo[1,5-a]pyridin-2-yl)-6,7-dihydro-1H-imidazo[4,5-c]pyridin-5(4H)-yl)(2-(2-hydroxypropan-2-yl)-4-methyloxazol-5-yl)methanone], the half-maximal activity concentration (AC50) is over 5000 nM. As for `O=C(Cc1nc(C(F)(F)F)cs1)N1CCc2[nH]cnc2[C@@H]1c1cc2ccccn2n1` [Example 609, (R)-1-(4-(pyrazolo[1,5-a]pyridin-2-yl)-6,7-dihydro-1H-imidazo[4,5-c]pyridin-5(4H)-yl)-2-(4-(trifluoromethyl)thiazol-2-yl)ethanone], the AC50 was over 5000 nM. `Cn1nccc1-c1nnc(C(=O)N2CCc3[nH]cnc3[C@@H]2c2cc3c(F)cccn3n2)o1` [Example 1019, (R)-(4-(4-fluoropyrazolo[1,5-a]pyridin-2-yl)-6,7-dihydro-1H-imidazo[4,5-c]pyridin-5(4H)-yl)(5-(1-methyl-1H-pyrazol-5-yl)-1,3,4-oxadiazol-2-yl)methanone]: the concentration at half-maximal activity (AC50) was over 5000 nM. As for `Cc1cccc(-c2nnc(C(=O)N3CCc4[nH]cnc4[C@@H]3c3cc4c(C(F)F)cccn4n3)o2)n1` [Example 1464, (R)-(4-(4-(difluoromethyl)pyrazolo[1,5-a]pyridin-2-yl)-6,7-dihydro-1H-imidazo[4,5-c]pyridin-5(4H)-yl)(5-(6-methylpyridin-2-yl)-1,3,4-oxadiazol-2-yl)methanone], the concentration at half-maximal activity (AC50) lay within 1000 to 5000 nM. Still for that read-out and setting: under `O=C(c1ocnc1C(F)(F)F)N1CCc2[nH]cnc2[C@@H]1c1cc2ccccn2n1` [Example 611, (R)-(4-(pyrazolo[1,5-a]pyridin-2-yl)-6,7-dihydro-1H-imidazo[4,5-c]pyridin-5(4H)-yl)(4-(trifluoromethyl)oxazol-5-yl)methanone] stands 1000 to 5000 nM; under `Cn1nccc1C(=O)N1CCc2[nH]cnc2[C@@H]1c1cc2ccccn2n1` [Example 661, (R)-(1-methyl-1H-pyrazol-5-yl)(4-(pyrazolo[1,5-a]pyridin-2-yl)-6,7-dihydro-1H-imidazo[4,5-c]pyridin-5(4H)-yl)methanone], over 5000 nM; under `CN(C)Cc1ccc2c(C(=O)N3CCc4[nH]cnc4[C@H]3c3cc4c(C(F)(F)F)cccn4n3)cnn2c1` [Example 1546, (S)-(6-((dimethylamino)methyl)pyrazolo[1,5-a]pyridin-3-yl)(4-(4-(trifluoromethyl)pyrazolo[1,5-a]pyridin-2-yl)-6,7-dihydro-1H-imidazo[4,5-c]pyridin-5(4H)-yl)methanone], 500 to 1000 nM. As to `Cc1nc([C@@H](C)O)oc1C(=O)N1CCc2[nH]cnc2[C@H]1c1cc2c(Cl)cccn2n1` [Example 706, ((S)-4-(4-chloropyrazolo[1,5-a]pyridin-2-yl)-6,7-dihydro-1H-imidazo[4,5-c]pyridin-5(4H)-yl)(2-((R)-1-hydroxyethyl)-4-methyloxazol-5-yl)methanone], the concentration at half-maximal activity (AC50) is under 500 nM. On to `CCOc1cccc2cc([C@H]3c4nc[nH]c4CCN3C(=O)c3oc(C(C)(C)O)nc3C(F)F)nn12` [Example 1244, (R)-(4-(difluoromethyl)-2-(2-hydroxypropan-2-yl)oxazol-5-yl)(4-(7-ethoxypyrazolo[1,5-a]pyridin-2-yl)-6,7-dihydro-1H-imidazo[4,5-c]pyridin-5(4H)-yl)methanone], for which the half-maximal activity concentration (AC50) lay within 1000 to 5000 nM. For `CC(C)(O)c1nc(C(F)F)c(C(=O)N2CCc3[nH]cnc3[C@@H]2c2cc3cc(F)ccn3n2)o1` [Example 1085, (R)-(4-(difluoromethyl)-2-(2-hydroxypropan-2-yl)oxazol-5-yl)(4-(5-fluoropyrazolo[1,5-a]pyridin-2-yl)-6,7-dihydro-1H-imidazo[4,5-c]pyridin-5(4H)-yl)methanone], the AC50 is 1000 to 5000 nM.
